Reference: patent US12129491B2, “Methods and compositions relating to lung cell differentiation” (CHILDREN'S MEDICAL CENTER CORPORATION, priority 2016, dated 2024)

How the values were obtained:
Format in all cases: cell-based, mouse
[1] = test system: CK1750 and SC241 cell lines; test: Flow cytometry screen of adenocarcinoma cell lines for stem cell surface marker Sca-1 with a small molecule library
Source text: The X axis crosses at the level of Sca-1 fluorescence measured in cells with the vehicle only control (DMSO). Bars up thus represent an increase in Sca-1 and Bars down represent a decrease. Each bar represents a different chemical treatment.
The CK1750 and SC241 cell lines derived from K-ras; p53fl/fl mouse adenocarcinoma tumors are highly enriched for Sca-1 and CD24. These cell lines were screened for factors that alter the expression of Sca1, CD24 or both markers, using the Stem Cell Core's Pilot Known Bioactives library, a small molecule library enriched in inhibitors of chromatin regulators (FIG. 1).

BASC 3D co-culture = BASC 3D co-culture resorted by FACS for Sca-1 expressing cells; conditions: 3D cultures after 3 weeks growth, vs DMSO control (FIG. 2)
[2] = test system: BASC (Bronchioalveolar Stem Cell) cultures; test: 3D organoid culture of BASC: organoid morphology, lineage and staining
Source text: (§1) Quantification and statistical analysis of organoid morphologies from cultures grown with UNC0638 or DMSO control. *=P<0.05, two tailed independent samples T-test
Graphs depicts quantification of organoid lineage proportions in UNC0638 and DMSO treated cultures. On the top graph bronchiolar and tracheobronichiolar organoids are counted separately. On the bottom graph these organoids are counted together. *=P<0.05, two tailed independent samples T-test
FIG. 6 depicts graphs of the quantification of PAS and Alcian Blue Stained Organoids in DMSO and UNC0638 treated Organoids.
(§2) AT2 cells are only capable of producing alveolar morphological organoids (FIG. 3).
(§3) UNC0638 treatment reduces the proportion of Sca-1+ve alveolar organoids and increases the proportion of small, undifferentiated organoids. (FIG. 4) 250 nM UNC0638 reduces alveolar colony formation and increase ciliated organoid formation (FIG. 5).
Organoids with visible movement are observed in control cultures, but are more frequent in 250 nM UNC0638 treated cultures. […] Some organoids in UNC0638 cultures (and some rare organoids in DMSO cultures) can be seen to be visibly moving. They have currents in their lumen causing material within to move around. […] Currents are always counter clockwise, consistent with direction of cilia.
Ciliated organoids have large amounts of material that stain for PAS and Alcian Blue, like mucus produced by goblet cells in the lung upper airways. This material is likely what can be seen to revolve in the organoids with interior lumen currents. G9a/G1p inhibition increases the proportion and overall number of PAS/Alcian Blue Staining Organoids (FIG. 6). PAS stained cells resemble goblet cells that produce mucus in the upper airway. […] This is precisely the same as the lung upper airways which have a lower layer of p63+ Keratin 5+ stem cells known as basal cells.

[3] = test system: AT2 (Alveolar Type 2) cultures; test: 3D organoid culture of AT2 cells: organoid formation; conditions: AT2 cultures (FIG. 3)
Source text: as §2

[4] = test system: Sca-1−ve and Sca-1+ve sorted cells; test: Quantification of organoid morphologies from Sca-1 sorted cells
Protocol: as §1, §3

Question: How did the “change in Sca-1 on the cell surface” value ([1]; among library chemicals, vs DMSO vehicle control (FIG. 1)) turn out when `COc1cc2c(NC3CCN(C(C)C)CC3)nc(C3CCCCC3)nc2cc1OCCCN1CCCC1` [UNC0638] was run?
Answer: largest increase in Sca-1

Question: And the “enrichment for high Sca-1 expressing, TPC-like cells” value ([1]; flow cytometry screen of adenocarcinoma cell lines)?
Answer: enriches for high Sca-1 expressing, TPC-like cells

Question: And the “Sca-1 expressing cells among stem cell-derived cells” value (BASC 3D co-culture)?
Answer: many more Sca-1 expressing cells

Question: And the alveolar colony formation ([2]; 250 nM (FIG. 5))?
Answer: reduces

Question: What about the ciliated organoid formation ([2]; 250 nM (FIG. 5)) of the same compound?
Answer: increase

Question: And the “organoids with visible movement” value ([2]; 250 nM, vs control cultures)?
Answer: more frequent

Question: What about the “organoids with alveolar morphology” value ([2]; BASC cultures (FIG. 3)) of the same compound?
Answer: significantly fewer

Question: And the “organoids that resemble the large airways of the lung” value ([2]; lung stem cell cultures, beating multiciliated, goblet like and P63+ Kertatin 5+ cells)?
Answer: more organoids

Question: What about the “H&E staining of Acetylated tubulin positive organoids” value ([2]; treated cultures) of the same compound?
Answer: many of the cells are muticiliated

Question: And the “organoids that stained with Acetylated tubulin, a marker of Ciliated cells” value ([2]; treated cultures vs control)?
Answer: significantly more

Question: What about the alveolar organoid differentiation ([2]; vs DMSO control, *=P<0.05, two tailed independent samples T-test (FIG. 4, FIG. 5)) of the same compound?
Answer: reduces

Question: What about the ciliated organoid differentiation ([2]; vs DMSO, *=P<0.05, two tailed independent samples T-test (FIG. 5)) of the same compound?
Answer: increases

Question: And the number of organoids [3]?
Answer: significantly fewer organoids

Question: What about the “proportion of alveolar organoids” value ([4]; Sca-1+ve (FIG. 4)) of the same compound?
Answer: reduces

Question: And the “proportion of small, undifferentiated organoids” value ([4]; Sca-1+ve (FIG. 4))?
Answer: increases

Question: And the organoid formation ([4]; Sca-1−ve sorted cells (FIG. 4))?
Answer: significantly reduces
